Data: patent EP0377642B1, “HERBICIDES FOR WEED CONTROL IN RICE” (E.I. DU PONT DE NEMOURS AND COMPANY, priority 1987, dated 1989)

How the values were obtained:
Type in all cases: in vivo
Jussiaea linifolia = assay: Field test applied at 18 DAS in direct seeded rice (Table 12); settings: scale 0-10
Source text: (§1) Methyl 2-[[[[(4-methoxy-6-methyl-1,3,5-triazin-2-yl)amino]carbonyl]amino]sulfonyl]benzoate (Compound 1) and mixtures thereof with other compounds were applied as a spray (using a hand sprayer) to rice (either transplanted or direct seeded) in several rice growing areas in Southeast Asia and in the U.S. Tables 1-28 contain the results of these tests and clearly exemplify the utility of this invention. The details of each application are included in the appropriate table. [drawing 2]

FIMBRISTYLIS MILIACEA [1] = assay: as above; settings: scale 0-10
Source text: as §1

Cyperus iria [2] = assay: as above; settings: scale 0-10
Source text: as §1

Ludwigia linifolia = assay: Herbicidal efficacy with Bensulfuron methyl and 2,4-D in Thailand (Table 20); settings: 14 days after treatment
Source text: as §1

rice [3] = assay: as above; settings: 14 days after treatment
Source text: as §1

Sphenoclea zeylanica [4] = assay: as above; settings: 14 days after treatment
Source text: as §1

Cuperus iria = assay: as above; settings: 14 days after treatment
Source text: as §1

FIMBRISTYLIS MILIACEA [5] = assay: as above; settings: 14 days after treatment
Source text: as §1

direct seeded rice = assay: Field test applied 7 DAS in direct seeded rice in the Philippines, phytotoxicity (Table 14); settings: 30 DAA
Source text: as §1

[6] = tested on: Barnyardgrass (Echinochloa crus-galli); assay: Field test applied 7 DAS in direct seeded rice in the Philippines, cover (Table 14); settings: 47 DAA
Source text: as §1

SEDGE = assay: as above; settings: 47 DAA
Source text: as §1

WEED [7] = assay: Field test applied 7 DAS in direct seeded rice in the Philippines, weed cover (Table 14); settings: 47 DAA
Source text: as §1

Sphenoclea zeylanica [8] = assay: Field test with Bensulfuron methyl in direct seeded rice (Table 10); settings: 10 = complete control
Source text: as §1

Cyperus iria [9] = assay: as above; settings: 10 = complete control
Source text: as §1

Marsilea crenata = assay: as above; settings: 10 = complete control
Source text: as §1

rice [10] = assay: Herbicidal efficacy with Bensulfuron methyl and 2,4-D in Thailand (Table 19); settings: 13 days after treatment
Source text: as §1

Sphenoclea zeylanica [11] = assay: as above; settings: 13 days after treatment
Source text: as §1

Cuperus difformis = assay: as above; settings: 13 days after treatment
Source text: as §1

WEED [12] = assay: Effects in combination with Bensulfuron Methyl and Thiobencarb or Pretilachlor on weed control (Table 25); settings: rate 25 g ai/ha, scale 0 to 10, treated at 2.0 leaf stage, evaluated four weeks later
Source text: as §1

COC(=O)c1ccccc1CS(=O)(=O)NC(=O)Nc1nc(OC)cc(OC)n1 [Bensulfuron methyl, methyl 2-[[[[[(4,6-dimethoxy-2-pyrimidinyl)amino]carbonyl]amino]sulfonyl]methyl]benzoate]
WEED CONTROL at 6 WAA JL (Jussiaea linifolia; 20 GM.A.I./HA): 9.50
WEED CONTROL at 6 WAA JL (Jussiaea linifolia; 30 GM.A.I./HA): 8.67
WEED CONTROL at 6 WAA FM (FIMBRISTYLIS MILIACEA [1]; 10 GM.A.I./HA): 10
WEED CONTROL at 6 WAA FM (FIMBRISTYLIS MILIACEA [1]; 15 GM.A.I./HA): 9.67
WEED CONTROL at 6 WAA FM (FIMBRISTYLIS MILIACEA [1]; 20 GM.A.I./HA): 10
WEED CONTROL at 6 WAA FM (FIMBRISTYLIS MILIACEA [1]; 30 GM.A.I./HA): 10
WEED CONTROL at 6 WAA CI (Cyperus iria [2]; 10 GM.A.I./HA): 6.67
WEED CONTROL at 6 WAA CI (Cyperus iria [2]; 15 GM.A.I./HA): 9.0
WEED CONTROL at 6 WAA CI (Cyperus iria [2]; 20 GM.A.I./HA): 9.33
WEED CONTROL at 6 WAA CI (Cyperus iria [2]; 30 GM.A.I./HA): 9.67
% CONTROL OR INJURY LL (Ludwigia linifolia; 10 GAI/HA): 80%
% CONTROL OR INJURY LL (Ludwigia linifolia; 15 GAI/HA): 80%
% CONTROL OR INJURY LL (Ludwigia linifolia; 20 GAI/HA): 87%
% CONTROL OR INJURY RICE (rice [3]; 10 GAI/HA): 0%
% CONTROL OR INJURY RICE (rice [3]; 15 GAI/HA): 0%
% CONTROL OR INJURY RICE (rice [3]; 20 GAI/HA): 0%
% CONTROL OR INJURY SZ (Sphenoclea zeylanica [4]; 10 GAI/HA): 23%
% CONTROL OR INJURY SZ (Sphenoclea zeylanica [4]; 15 GAI/HA): 60%
% CONTROL OR INJURY SZ (Sphenoclea zeylanica [4]; 20 GAI/HA): 53%
% CONTROL OR INJURY CI (Cuperus iria; 10 GAI/HA): 77%
% CONTROL OR INJURY CI (Cuperus iria; 15 GAI/HA): 90%
% CONTROL OR INJURY CI (Cuperus iria; 20 GAI/HA): 95%
% CONTROL OR INJURY FM (FIMBRISTYLIS MILIACEA [5]; 10 GAI/HA): 80%
% CONTROL OR INJURY FM (FIMBRISTYLIS MILIACEA [5]; 15 GAI/HA): 100%
% CONTROL OR INJURY FM (FIMBRISTYLIS MILIACEA [5]; 20 GAI/HA): 100%
PHYTO (1-9) (direct seeded rice; 8.25 G AI/HA): 1.3
PHYTO (1-9) (direct seeded rice; 12.0 G AI/HA): 1
PHYTO (1-9) (direct seeded rice; 16.50 G AI/HA): 1.7
% BYG COVER ([6]; 8.25 G AI/HA): 29%
% BYG COVER ([6]; 12.0 G AI/HA): 17%
% BYG COVER ([6]; 16.50 G AI/HA): 28%
% SEDGE COVER (SEDGE; 8.25 G AI/HA): 4%
% SEDGE COVER (SEDGE; 12.0 G AI/HA): 2%
% SEDGE COVER (SEDGE; 16.50 G AI/HA): 2%
% WEED COVER (WEED [7]; 8.25 G AI/HA): 29%
% WEED COVER (WEED [7]; 12.0 G AI/HA): 20%
% WEED COVER (WEED [7]; 16.50 G AI/HA): 28%
WEEDS CONTROL at 4 WAA SZ (Sphenoclea zeylanica [8]; 10 GAI/HA): 0
WEEDS CONTROL at 4 WAA SZ (Sphenoclea zeylanica [8]; 20 GAI/HA): 6
WEEDS CONTROL at 4 WAA CI (Cyperus iria [9]; 10 GAI/HA): 2
WEEDS CONTROL at 4 WAA CI (Cyperus iria [9]; 20 GAI/HA): 8
WEEDS CONTROL at 4 WAA MC (Marsilea crenata; 10 GAI/HA): 0
WEEDS CONTROL at 4 WAA MC (Marsilea crenata; 20 GAI/HA): 3.33
% CONTROL OR INJURY RICE (rice [10]; 10 GAI/HA): 0%
% CONTROL OR INJURY RICE (rice [10]; 15 GAI/HA): 0%
% CONTROL OR INJURY RICE (rice [10]; 20 GAI/HA): 0%
% CONTROL OR INJURY SZ (Sphenoclea zeylanica [11]; 10 GAI/HA): 88%
% CONTROL OR INJURY SZ (Sphenoclea zeylanica [11]; 15 GAI/HA): 100%
% CONTROL OR INJURY SZ (Sphenoclea zeylanica [11]; 20 GAI/HA): 100%
% CONTROL OR INJURY CD (Cuperus difformis; 10 GAI/HA): 100%
% CONTROL OR INJURY CD (Cuperus difformis; 15 GAI/HA): 100%
% CONTROL OR INJURY CD (Cuperus difformis; 20 GAI/HA): 100%
WEED CONTROL RATINGS CD (WEED [12]; Cyperus difformis): 10
WEED CONTROL RATINGS CS (WEED [12]; Cyperus serotinus): 2
WEED CONTROL RATINGS EO (WEED [12]; Echinochloa oryzicola): 1
WEED CONTROL RATINGS BL (WEED [12]; Lindernia pyxidaria): 9
WEED CONTROL RATINGS MV (WEED [12]; Monochoria vaginalis): 9
WEED CONTROL RATINGS SP (WEED [12]; Sagittaria pygmaea): 8
WEED CONTROL RATINGS SJ (WEED [12]; Scirpus juncoides): 5
